82 molecules from the METLIN SMRT retention time set (Domingo-Almenara et al. 2019) can be followed below.

This series can be described thus: gradient 5% acetonitrile 3 min, to 50% in 2 min, to 85% in 15 min, held 3 min, 100 µL/min. To be noted: column: Zorbax Extend-C18 2.1 x 50 mm; eluents: water / acetonitrile, 0.1% formic acid. The method, boiled down:
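Using water and acetonitrile that each contained 0.1% formic acid, mixtures of ~100 pure standards were separated at 100 μL/min on a Zorbax Extend-C18 column (2.1 × 50 mm, 1.8 μm). The HPLC fed a quadrupole time-of-flight mass spectrometer working in positive and negative ionization mode, with dead and dwell volumes of 40 μL and 900 μL. Data were acquired over 3 months. Retention time was read from computationally picked adduct peaks after manual inspection of each.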
Turning to `COCc1cn(C2CN(C(=O)COc3ccccc3)C2)nn1`, the RP-LC retention time worked out at 642 s. Molecule `CCOC(=O)C1CCC(CNC(=O)Nc2ccc(-c3nc(-c4cc(C)ccc4C)co3)cc2)CC1` (configuration not stated) came in with an RP-LC retention time of 1260 s. Then `CN1C(=O)c2cccn2CC1C(=O)NCC1CCCCC1` (configuration not stated), with 727 s; and `COc1cc(-c2nc3ccc(C)cn3c2Nc2ccc3c(c2)OCCO3)ccc1O`, with 636 s. Then `CCOc1cc(=O)n2c(c1C(=O)Nc1cc(OC)c(OC)c(OC)c1)CCCC2`, with 967 s; and `COCCn1cc(CCNC(=O)Nc2ccc(C)c(Cl)c2)c2cccnc21`, with 812 s. The result for `Cc1ccc(N2CCC(NC(=O)Nc3ccccc3)C2=O)cc1C` (configuration not stated) reads 870 s.

In turn, `COC(=O)CN1CN(c2ccc(C)cc2)c2ncccc2S1(=O)=O` returned an RP-LC retention time of 894 s. For the molecule `Cc1onc(-c2ccccc2Cl)c1C(=O)N1CC2CC1C(=O)O2` (configuration not stated), the RP-LC retention time amounted to 693 s. Then `COc1ccc(-c2nc(N3CCCCC3)c3ccccc3n2)cc1`, with 777 s. Regarding `COc1cc(NS(=O)(=O)c2ccc(Nc3nc(-c4ccc(C)c(C)c4)cs3)cc2)nc(OC)n1`, the RP-LC retention time is 1190 s. Molecule `CSc1ncn(-c2nc(N(C)C)nc(N3CCCCC3)n2)n1` showed an RP-LC retention time of 1090 s. Then `CCCCC(=O)N1CCN(C(=O)c2cc3cc(Br)ccc3[nH]2)CC1`, with 873 s; and `CN(Cc1nc2ccccc2n1CC(=O)N(C)c1ccccc1)C(=O)c1ccco1`, with 694 s; and `O=C(CSc1nccn1-c1cccc(Cl)c1)Nc1ccccc1F`, with 841 s. The result for `NC(=O)c1cc(Br)cc(C2CCCCC2)c1O` reads 1220 s. The result for `CN1CCCC1c1nc(C2CN(C(=O)c3cnccn3)C2)no1` (configuration not stated) reads 546 s. `Cc1cc(C)c(NC(=O)Cn2cnc3c(sc4nc(-c5ccccc5)ccc43)c2=O)c(C)c1` showed an RP-LC retention time of 1050 s.

`COC(=O)c1cn(CC(=O)NCc2cc3c(cc2OC)OCCCO3)c2ccccc12` showed an RP-LC retention time of 897 s. Then `Cc1c(C(=O)NC2CC2)cc(-c2ccc(F)cc2)n1C`, with 830 s; and `Cn1nc(-c2nc(C3CC3)no2)c2c1CCN(C(=O)c1ccc(Cl)s1)C2`, with 928 s; and `O=C(Nc1ccc(Cl)cc1F)N1CCC(N2CC(F)(F)C[C@H]2COCC2CC2)CC1`, with 741 s. The result for `CCC1CN(C(=O)N2CCC(C(=O)NCCCN3CCN(C)CC3)CC2)c2ccccc2O1` (configuration not stated) reads 592 s; that for `COc1ccc(-c2ccc(=O)n(Cc3nc(-c4ccc(Cl)c(F)c4)no3)n2)cc1`, 1080 s; that for `CC1Oc2ccc(-c3csc(NS(C)(=O)=O)n3)cc2NC1=O` (configuration not stated), 609 s. Then `CCc1c(C(=O)O)nnn1Cc1ccccc1`, with 701 s. Turning to `C=C[C@]12CN(C)C3C4COC(CC41)[C@]1(C(=O)Nc4ccccc41)[C@@H]32` (some centres not stated), the RP-LC retention time was 551 s. The result for `CN1CCCCc2cc(C(=O)NCCN(C)C3CCCCC3)sc21` reads 687 s; that for `Clc1ccc(-c2nc(N3CCCC3)c3ccccc3n2)cc1`, 726 s; that for `Cc1noc(C)c1S(=O)(=O)N1CCC(Cc2nc(-c3ccncc3)n[nH]2)C1` (configuration not stated), 619 s. As for `O=C1CCCc2cc(S(=O)(=O)N3CCC(C(=O)NCCc4ccc(Cl)cc4)CC3)ccc2N1`, the RP-LC retention time was determined as 776 s. Then `CC1CCCN(c2ccc(-c3noc(CN4CCN(c5ccccc5F)CC4)n3)cn2)C1` (configuration not stated), with 1090 s. Then `O=C(c1c(F)cccc1F)N1CCN(S(=O)(=O)C2CC2)CC1`, with 691 s.

`COc1cccc(N2CCN(C(=O)C3CCCN(c4ncnc5c4nc4n5CCCCC4)C3)CC2)c1` (configuration not stated) displayed an RP-LC retention time of 627 s. The result for `Cc1cc(C)n(-c2ccnc(N3CCC(C(=O)N4CCN(c5ccccn5)CC4)CC3)n2)n1` reads 629 s; that for `O=C(NCc1ccc(N2CCCCC2)cc1)c1ccc2ncnc(N3CCCC3)c2c1`, 561 s; that for `CCC1Oc2ccc(C)cc2N(CC(=O)NCCCN2CC(C)CC(C)C2)C1=O` (configuration not stated), 708 s. Then `CC(C)Cn1c(=O)c2cc(C(=O)NC(C)c3ccco3)nn2c2ccccc21` (configuration not stated), with 1030 s; and `O=C(NCC(O)C1CCCCC1)c1ccsc1` (configuration not stated), with 689 s. Then `CCCCc1ccc(NC(=O)CSc2ccc(-c3ccncc3)nn2)cc1`, with 718 s; and `CCCCNc1cc(Cl)nc(N)n1`, with 690 s. For `Cc1cnc(C(=O)NC2C[C@H]3CC[C@@H](C2)N3C(=O)Cc2c(C)noc2C)cn1` (some centres not stated), the RP-LC retention time stood at 611 s. The result for `Cc1nc(OCC(=O)Nc2ccc(F)cc2)c2ccccc2n1` reads 709 s. Then `CN(C)C[C@@H]1CN(S(C)(=O)=O)C[C@H]1NC(=O)c1cccs1`, with 569 s; and `CCN(CC)CCCNC(=O)c1cc(C)nc2ccc(Br)cc12`, with 585 s; and `O=C(Nc1ccc(N2CCOCC2)cc1)C1CCCN(c2ccnc(-c3cccc(F)c3)n2)C1` (configuration not stated), with 649 s. As to `COc1cccc(NC(=O)C2CCN(S(=O)(=O)c3c(C)nn(-c4ccccc4)c3C)CC2)c1`, the RP-LC retention time came out at 940 s. Then `Cc1cc(C)n(CCNC(=O)CSCc2ccccc2)n1`, with 683 s; and `O=C(Nc1ccccc1)C1CCCN(c2ncnc3c2oc2ccccc23)C1` (configuration not stated), with 798 s; and `CS(=O)(=O)N1CCCC(C(=O)Nc2ccc(Cl)cc2C(=O)c2ccccc2)C1` (configuration not stated), with 869 s. The result for `CCn1cc(-c2ccc(C)cc2)cc1C(=O)NCCCN1CCOCC1` reads 693 s; that for `CCn1cnc2ccc(-c3noc(-c4ccc(OC)cc4)n3)cc21`, 753 s.

Molecule `O=C(CCc1c[nH]c2ccccc12)N1CCCN(C2CCN(CC3CC3)C2=O)CC1` (configuration not stated) returned an RP-LC retention time of 570 s.

Consider `CN1c2cc(F)ccc2C(=O)NC12CCN(C(=O)c1ccc3c(c1)OCO3)CC2`, for which the RP-LC retention time came out at 724 s.

The molecule `O=C(NCc1nc2ccccc2n1CC(=O)N1CCCCC1)c1ccco1` returned an RP-LC retention time of 614 s.

`COC(=O)CCN1C(=O)c2ccccc2C1=O`: the RP-LC retention time amounted to 688 s. The molecule `CCC(C)NS(=O)(=O)c1cc(-c2nc(C)cs2)n(C)c1C` (configuration not stated) came in with an RP-LC retention time of 905 s. `CCN1C(=O)COc2ccc(-c3noc(-c4ccc(F)cc4)n3)cc21` showed an RP-LC retention time of 1130 s.

As for `COc1ccc(NC(=O)c2cccn2-c2cccnc2)cc1OC`, the RP-LC retention time is 678 s. The result for `O=C(Nc1nnc(Cc2ccccc2)s1)C1CC(=O)N(c2n[nH]c3ccccc23)C1` (configuration not stated) reads 730 s; that for `O=C(Cn1nc(C(=O)N2CCOCC2)c2ccccc21)NCc1ccc(F)cc1`, 715 s.

On to `CC(=O)N1c2ccc(S(=O)(=O)N3CCCCC3)cc2CC1C(=O)NCCN1CCCC1` (configuration not stated), for which the RP-LC retention time amounted to 592 s. Then `CCOc1cc(=O)n2c(c1C(=O)OCc1ccccc1F)CCCCC2`, with 914 s; and `O=C(Nc1ccc(OC(F)(F)F)cc1)C1CCCN(C(=O)c2cc(-c3ccncc3)n[nH]2)C1` (configuration not stated), with 692 s. Molecule `COc1ccc(OCC(=O)N2CCC(C(=O)NCc3csc(-c4cccs4)n3)CC2)cc1` came in with an RP-LC retention time of 771 s. Then `Cc1nc2c(ccc3nc(NC(=O)c4ccccc4Br)sc32)s1`, with 869 s; and `CCOc1ccc(C(=O)N2CCC3(C2)C(=O)N(C)c2ccc(OC)cc23)cc1` (configuration not stated), with 788 s; and `Nc1nc(Cl)nc2c1ncn2[C@@H]1O[C@H](CO)[C@@H](O)[C@H]1O`, with 590 s. The molecule `Cc1sc(NC(=O)c2ccc(Br)cc2)nc1-c1ccc2c(c1)NC(=O)C(C)O2` (configuration not stated) showed an RP-LC retention time of 1040 s. Then `O=C(Nc1cccc([N+](=O)[O-])c1)c1cc2ccccc2cc1O`, with 1100 s; and `Cc1c(Cl)cccc1S(=O)(=O)NCC1CCN(C(=O)c2cc3ccccc3o2)CC1`, with 934 s; and `CCc1ccc(CNC(=O)Cn2cc(-c3nnco3)c3ccccc32)cc1`, with 866 s.

Consider `COCCNC(=O)NCc1ccc2c(c1)N(C(=O)c1ccccc1)CC2`, for which the RP-LC retention time is 696 s.

`COCc1cc2nn(CC(=O)Nc3ccccc3F)c(=O)n2c(-c2ccccc2)n1`: the RP-LC retention time came out at 795 s. The result for `O=C(c1cc2c(s1)CCC(C(=O)N1CCOCC1)C2)N1CCCCC1` (configuration not stated) reads 701 s; that for `CC1CCN(C(=O)Cn2c(=O)c3cccn3c3ccc(F)cc32)CC1`, 855 s. The result for `O=C(c1nc(-c2ccnc(N3CCCC3)c2)no1)N1CCC2(CC1)OCCO2` reads 617 s; that for `O=C(Cn1ccc2ccn(Cc3cccnc3)c2c1=O)N1CCOCC1`, 569 s; that for `COc1ccc(-c2ccc3ncc4c(c3c2)n(-c2ccc(N3CCNCC3)c(C(F)(F)F)c2)c(=O)n4C)cn1`, 630 s.

Consider `COCCNC(=O)N1CCCC(COC)C1` (configuration not stated), for which the RP-LC retention time was determined as 578 s. In turn, `COc1cccc(Cn2cnc3c(-c4cccc(F)c4)csc3c2=O)c1` showed an RP-LC retention time of 1050 s. The result for `Cc1c(C(=O)O)nnn1-c1ccc(C(F)(F)F)cc1` reads 730 s.
